For one assay, the system named is adult zebrafish. Nature of the assay: Adult zebrafish caudal fin regeneration model. It is filed as in vivo, Danio rerio. To be noted: 15 μM in tank water, 26 h regeneration at 32° C., vs DMSO. An excerpt: We next tested the regenerative capabilities of zebrafish, which have a robust capacity to replace and renew organs and tissues derived from all three germ layers. Regenerating fin joints are reported to constitute a pre-osteoblast niche from which OSX-expressing (Sp7+) osteoblasts radiate de novo (Ando et al., 2017). Simultaneously, osteoblasts and osteogenic hypertrophic chondrocytes in both early and later stages of differentiation express collagen10 (col10a1) (Huycke et al., 2012).
Animals studies were performed according to protocols approved by the WCMC IACUC. Wildtype (AB/TU hybrid) zebrafish were maintained at 28.5° C. Larval fish were treated from 7 dpf to 8 dpf in tank water with DMSO or with a 24-hour pulse of 15 μM DIPQUO or inert analog BT344 or BT345, and were fixed at 9 dpf in 4% paraformaldehyde overnight rocking at 4° C. Fixed larvae were washed in PBS-0.1% Tween-20 (PBST), followed by 50% ethanol/50% PBST. Larvae were transferred to staining solution (66.5% ethanol, 100 mM MgCl2, 0.02% alizarin red) and incubated for 40 hours, rocking at room temperature in the dark. Larvae were washed in H2O+0.1% Tween-20, and excess stain removed by bleaching for approximately 10 minutes in the dark with a 1:1 mixture of 3% […] and 2% KOH. […] Images were acquired on a Zeiss LSM 800 confocal microscope and Sp7^+/col10a1^+ cells quantified using ImageJ.

In the next assay the test system is p38 MAPK. Nature of the assay: Western blotting of p38 MAPK phosphorylation in C2C12 cells. It is filed as cell-based, mouse. The protocol: Whole cell extracts were collected from C2C12 or BRITER cells in complete lysis buffer (20 mM Tris, 150 mM NaCl, 50 mM NaF, 1% NP40 substitute, HALT protease inhibitor cocktail (ThermoScientific). Proteins were resolved by electrophoresis on pre-cast 10% NuPage Bis-Tris gels (Invitrogen) and transferred to PVDF membranes (Bio-Rad). Membranes were blocked in 5% BSA-TBS-0.5% Tween-20 for 15 minutes, then incubated at 4° overnight with primary antibodies. Antibodies used were: rabbit anti-phospho-p38 MAPK (cat. no. 9211), anti-p38 MAPK XP (8690), anti-phospho-SMAD1/5 (9516), anti-SMAD1 XP (6944), anti-phospho-SMAD2/3 (8828), anti-SMAD2/3 XP (8685), anti-phospho-JNK (4668), anti-SAPK/JNK (9252), anti-phospho-Akt XP (4060), pan anti-Akt (4691), anti-phospho ERK p42/p44 (4377), anti-ERK p42/p44 (9102), anti-phospho-MKK3/6 (12280), anti-MKK3 (8535), anti-phospho-TAK1 (4531), anti-TAK1 (5206), anti-HA (3274), and anti-FLAG (14793); all from Cell Signaling); and mouse anti-p38α (cat. no. 33-1300), anti-p38β (33-8700; both ThermoFisher) and anti-β-actin (Sigma A1978). Proteins were visualized with HRP-conjugated secondary antibodies (Bio-Rad) with WestPico (ThermoFisher) or Immobilon (Millipore) chemiluminescence reagents. Images were obtained and analyzed for relative densitometric relationships on a LI-COR C-DiGit scanner using Image Studio software.
On the technique in general: Immunoblotting shows a protein as a band on a membrane.

For the next assay, the system named is p38-β. Kind of assay: Isoform-specific immunoprecipitation, p38-β activity in C2C12 cells. It is filed as cell-based, mouse. Conditions: C2C12, 10 μM DIPQUO. An excerpt: There are four separate p38 isoforms: α, β, γ, and δ. The respective roles of the α and β isoforms in bone differentiation have been dissected to the extent that p38-β is known to be involved specifically in skeletogenesis (Greenblatt et al., 2010), while p38-α has roles that are both wide-ranging and highly specific, for instance in dentition (Greenblatt et al., 2015). Accordingly, we used small interfering RNA-mediated knockdown to probe the specificity of DIPQUO to block the activity of one or the other isoform (FIG. 6E). […] To confirm the biological significance of this observation, the α and β isoforms were immunoprecipitated from C2C12 cells and analyzed for relative activity levels.

As for `Cc1cc(C)c2[nH]c(=O)c(-c3[nH]cnc3-c3ccccc3)cc2c1` [RU-0226606, 6,8-dimethyl-3-(4-phenyl-1H-imidazol-5-yl)quinolin-2(1H)-one], the “number of Sp7+/Col10a1+ cells emanating from new fin ray joints” value in the assay on adult zebrafish is listed as “significantly increased”. Also, the “p38 MAPK signaling (phosphorylation)” value in the assay on p38 MAPK (C2C12, western blotting) is listed as “selectively activated p38 MAPK signaling”. In addition, the “concentration at which effects on p38 MAPK and JNK pathway activation overlap” value in the assay with p38 MAPK (dose-response, western blotting, 6-8 hours of treatment) is 5 to 10 µM. For the same compound, the “p38-β isoform activity after immunoprecipitation” value with p38-β is listed as “significantly activated”.

Source of the values: patent US11478466B2, “Small molecule promoting osteoblast differentiation” (Cornell University, priority 2019, dated 2022).
